Reference: ChEMBL document CHEMBL1151922, “Structure-activity relationships of 3,5-disubstituted benzamides as glucokinase activators with potent in vivo efficacy” (Bioorg Med Chem, 2009)

Key:
[1] = Octanol-water distribution coefficient, log D at pH 7.4 by HPLC-MS analysis
Hexokinase-4 [2] = target: T1, Hexokinase-4 (Homo sapiens, UniProt P35557); experiment: Activation of flag-tagged human recombinant liver glucokinase expressed in Escherichia coli by glucose-6-phosphate dehydrogenase coupled continuous spectrophotometric assay in presence of 10 mM glucose
T1 sequence (P35557 whole entry): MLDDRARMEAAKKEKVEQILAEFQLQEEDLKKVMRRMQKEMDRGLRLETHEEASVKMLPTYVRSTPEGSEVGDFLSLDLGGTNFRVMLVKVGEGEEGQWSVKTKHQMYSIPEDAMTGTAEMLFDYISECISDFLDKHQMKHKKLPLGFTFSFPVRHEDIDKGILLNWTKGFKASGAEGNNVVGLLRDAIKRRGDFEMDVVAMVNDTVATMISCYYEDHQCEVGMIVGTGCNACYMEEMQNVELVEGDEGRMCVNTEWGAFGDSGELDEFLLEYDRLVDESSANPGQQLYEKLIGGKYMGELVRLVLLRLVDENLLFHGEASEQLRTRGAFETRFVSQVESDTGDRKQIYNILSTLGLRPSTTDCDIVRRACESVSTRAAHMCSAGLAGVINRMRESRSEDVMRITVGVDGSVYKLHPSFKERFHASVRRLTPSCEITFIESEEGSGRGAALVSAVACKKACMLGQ

Hexokinase-4 [3] = target: T1, Hexokinase-4; experiment: Activation of flag-tagged human recombinant liver glucokinase expressed in Escherichia coli by glucose-6-phosphate dehydrogenase coupled continuous spectrophotometric assay in presence of 2.5 mM glucose

| SMILES | logD [1] | EC50 (Hexokinase-4 [2]) [nM] | EC50 (Hexokinase-4 [3]) [nM] |
| --- | --- | --- | --- |
| CS(=O)(=O)c1ccc(Oc2cc(OC3CCOC3)cc(C(=O)Nc3nccs3)c2)cc1 (racemic) | 4.2 |  |  |
| CS(=O)(=O)c1ccc(Oc2cc(O[C@H]3CCC[C@@H]3O)cc(C(=O)Nc3nccs3)c2)cc1 (stereo in doubt) |  | 170 | 280 |
| CS(=O)(=O)c1ccc(Oc2cc(O[C@@H]3CCC[C@H]3O)cc(C(=O)Nc3nccs3)c2)cc1 |  | 1600 | 3700 |
| Cc1csc(NC(=O)c2cc(Oc3ccc(S(C)(=O)=O)cc3)cc(OC(C)C(=O)O)c2)n1 (racemic) |  | 7400 | 30000 |
| CN1CCC(Oc2cc(Oc3ccc(S(C)(=O)=O)cc3)cc(C(=O)Nc3nccs3)c2)C1 (racemic) |  | 7300 | 24000 |
| CS(=O)(=O)c1ccc(Oc2cc(OC3CCCC3)cc(C(=O)Nc3nccs3)c2)cc1 | > 5 | 240 | 490 |
| CS(=O)(=O)c1ccc(Oc2cc(O[C@H]3CCC[C@@H]3O)cc(C(=O)Nc3nccs3)c2)cc1 (stereo in doubt; 6j) |  | 90 | 160 |
| CC(C)Oc1cc(Oc2ccc(S(C)(=O)=O)cc2)cc(C(=O)Nc2nccs2)c1 | > 5 | 60 | 170 |
| CC(C)C(CO)Oc1cc(Oc2ccc(S(C)(=O)=O)cc2)cc(C(=O)Nc2nccs2)c1 (racemic) | > 4 | 200 | 360 |
| Cn1cnnc1Sc1ccc(N)c(C(=O)Nc2nccs2)c1 |  | 140 | 420 |
| CCC(COC)Oc1cc(Oc2ccc(S(C)(=O)=O)cc2)cc(C(=O)Nc2nccs2)c1 (racemic) | > 5 | 60 | 190 |
| CS(=O)(=O)c1ccc(Oc2cc(O[C@@H]3CCC[C@@H]3O)cc(C(=O)Nc3nccs3)c2)cc1 |  | 1200 | 3400 |
| CC(CO)Cc1cc(Oc2ccc(S(C)(=O)=O)cc2)cc(C(=O)Nc2nccs2)c1 (racemic) | 3.4 | 250 | 750 |
| CS(=O)(=O)c1ccc(Oc2cc(OCCO)cc(C(=O)Nc3nccs3)c2)cc1 | 2.4 | 200 | 780 |
